≈ marks a conversion by molar mass, not a printed value. Where a name gives a salt, the structure may show the parent alone. Read-outs that look alike come from different tables or passages of the source.
Key:
[1] = test system: Staphylococcus aureus (S. aureus FDA 209P); experiment: Agar plate dilution MIC, Staphylococcus aureus FDA 209P; type: cell-based; conditions: FDA209P, read-out: MIC S. aureus FDA 209P
Protocol: (§1) Antibacterial test was performed in substantial accordance with agar plate dilution method based on Standard method of The Japan Society of Chemotherapy to determine minimum inhibitory concentration (MIC) of the respective test compounds against Staphylococcus aureus (S. aureus FDA 209P) and vancomycin-resistant enterococci (E. faecalis NCTC-12201). Also determined was MIC80 on clinically separated strains (27 strains) of MRSA. The inoculated amount was 10^6 CFU/ml and flomoxef (FMOX) and vancomycin (VCM) were used as controls.

[2] = test system: vancomycin-resistant enterococci (E. faecalis NCTC-12201); experiment: Agar plate dilution MIC, vancomycin-resistant enterococci E. faecalis NCTC-12201; type: cell-based; conditions: Enterococcus faecalis
Protocol: as §1

[3] = agar plate dilution, inoculum 10^6 CFU/ml
[4] = NCTC12201, agar plate dilution, inoculum 10^6 CFU/ml, vancomycin-resistant, read-out: MIC E. faecalis NCTC-12201

Row | Compound | MIC [1, 3] [µg/mL] | MIC [2, 4] [µg/mL] | MIC [1] [µg/mL] | MIC ([2]; NCTC12201, read-out: MIC E. faecalis NCTC-12201) [µg/mL]
1 | CO[C@@]1(NC(=O)CSC(F)F)C(=O)N2C(C(=O)O)=C(CSc3nnnn3CCO)CO[C@@H]21 [FMOX, flomoxef, reference compound] | 0.2 (≈ 0.403 µM) | > 100 |  | 
2 | CN[C@H](CC(C)C)C(=O)N[C@H]1C(=O)N[C@@H](CC(N)=O)C(=O)N[C@H]2C(=O)N[C@H]3C(=O)N[C@H](C(=O)N[C@H](C(=O)O)c4cc(O)cc(O)c4-c4cc3ccc4O)[C@H](O)c3ccc(c(Cl)c3)Oc3cc2cc(c3O[C@@H]2O[C@H](CO)[C@@H](O)[C@H](O)[C@H]2O[C@H]2C[C@](C)(N)[C@H](O)[C@H](C)O2)Oc2ccc(cc2Cl)[C@H]1O [VCM, vancomycin, reference compound] |  |  | 0.78 (≈ 0.538 µM) | > 1000
3 | O=C(Cc1cccs1)N[C@@H]1C(=O)N2C(C(=O)O)=C(C=CSc3cc(=O)c4ccccc4s3)CS[C@H]12 [compound 1, 7-[2-(2-thienyl)acetamide]-3-[2-(4-oxo-4H-1-benzothiopyran-2-yl)thiovinyl]3-cephem-4-carboxylic acid] | 0.2 (≈ 0.369 µM) | 3.13 (≈ 5.77 µM) |  | 
4 | O=C(Cc1cccs1)N[C@@H]1C(=O)N2C(C(=O)O)=C(C=CSc3cc(=O)c4cc(F)c(F)c(F)c4s3)CS[C@H]12 [compound 7, 7-[2-(2-thienyl)acetamide]-3-[2-(6,7,8-trifluoro-4-oxo-4H-1-benzothiopyran-2-yl)thiovinyl]-3-cephem-4-carboxylic acid] | 0.025 (≈ 0.0419 µM) | 0.78 (≈ 1.31 µM) |  | 
5 | O=C(Cc1cccs1)N[C@@H]1C(=O)N2C(C(=O)O)=C(C=CSc3cc(=O)c4ccc(O)cc4s3)CS[C@H]12 [compound 8, 7-[2-(2-thienyl)acetamide]-3-[2-(7-hydroxy-4-oxo-4H-1-benzothiopyran-2-yl)thiovinyl]-3-cephem-4-carboxylic acid] | 0.2 (≈ 0.358 µM) | 12.5 (≈ 22.4 µM) |  | 
6 | Nc1nc(/C(=N/O)C(=O)N[C@@H]2C(=O)N3C(C(=O)O)=C(C=CSc4cc(=O)c5ccccc5s4)CS[C@H]23)cs1 [compound 11, sodium 7-[2-hydroxyimino-2-(2-aminothiazol-4-yl)acetamide]-3-[2-(4-oxo-4H-1-benzothiopyran-2-yl)thiovinyl]-3-cephem-4-carbonate] | 0.1 | 1.56 |  | 
7 | Nc1nc(/C(=N/O)C(=O)N[C@@H]2C(=O)N3C(C(=O)O)=C(C=CSc4cc(=O)c5ccc(F)cc5s4)CS[C@H]23)cs1 [compound 18, 7-[2-hydroxyimino-2-(2-aminothiazol-4-yl)acetamide]-3-[2-(7-fluoro-4-oxo-4H-1-benzothiopyran-2-yl)thiovinyl]-3-cephem-4-carboxylic acid] | 0.39 (≈ 0.644 µM) | 6.25 (≈ 10.3 µM) |  | 
8 | O=C(Cc1cccs1)N[C@@H]1C(=O)N2C(C(=O)O)=C(C=CSc3cc(=O)c4ccc(N5CCNCC5)cc4s3)CS[C@H]12 [compound 22, 7-[2-(2-thienyl)acetamide]-3-[2-(4-oxo-7-(piperazin-1-yl)-4H-1-benzothiopyran-2-yl)thiovinyl]-3-cephem-4-carboxylic acid.hydrochloride] | ≤ 0.006 | 6.25 |  | 
9 | O=C(Cc1cccs1)N[C@@H]1C(=O)N2C(C(=O)O)=C(C=CSc3cc(=O)c4nccnc4s3)CS[C@H]12 [compound 24, 7-[2-(2-thienyl)acetamide]-3-[2-(8-oxo-8H-thiopyrano[2,3-b]pyrazin-6-yl)thiovinyl]-3-cephem-4-carboxylic acid] | ≤ 0.006 | 3.13 (≈ 5.75 µM) |  | 
10 | O=C(Cc1cccs1)N[C@@H]1C(=O)N2C(C(=O)O)=C(C=CSc3sc4ccsc4c(=O)c3Br)CS[C@H]12 [compound 25, 7-[2-(2-thienyl)acetamide]-3-[2-(6-bromo-7-oxo-7H-thieno[3,2-b]thiopyran-5-yl)thiovinyl]-3-cephem-4-carboxylic acid] | 0.013 (≈ 0.0207 µM) | 0.78 (≈ 1.24 µM) |  | 
11 | O=C(Cc1ccccc1)N[C@@H]1C(=O)N2C(C(=O)O)=C(C=CSc3cc(=O)c4ccccc4s3)CS[C@H]12 [compound 27, 7-(2-phenylacetamide)-3-[2-(4-oxo-4H-1-benzothiopyran-2-yl)thiovinyl]-3-cephem-4-carboxylic acid] | 0.025 (≈ 0.0466 µM) | 3.13 (≈ 5.83 µM) |  | 

Now from value to compound, other results behind:

Row | MIC [1, 3] [µg/mL] | MIC [2, 4] [µg/mL] | Compound | MIC [1] [µg/mL] | MIC ([2]; NCTC12201, read-out: MIC E. faecalis NCTC-12201) [µg/mL]
12 | 0.05 (≈ 0.0892 µM) | 0.78 (≈ 1.39 µM) | O=C(Cc1cccs1)N[C@@H]1C(=O)N2C(C(=O)O)=C(C=CSc3cc(=O)c4ccc(F)cc4s3)CS[C@H]12 [compound 2, 7-[2-(2-thienyl)acetamide]-3-[2-(7-fluoro-4-oxo-4H-1-benzothiopyran-2-yl)thiovinyl]-3-cephem-4-carboxylic acid] |  | 
13 | 0.1 (≈ 0.175 µM) | 1.56 (≈ 2.72 µM) | COc1ccc2c(=O)cc(SC=CC3=C(C(=O)O)N4C(=O)[C@@H](NC(=O)Cc5cccs5)[C@H]4SC3)sc2c1 [compound 4, 7-[2-(2-thienyl)acetamide]-3-[2-(7-methoxy-4-oxo-4H-1-benzothiopyran-2-yl)thiovinyl]-3-cephem-4-carboxylic acid] |  | 
14 | 0.05 (≈ 0.0819 µM) | 1.56 (≈ 2.55 µM) | O=C(Cc1cccs1)N[C@@H]1C(=O)N2C(C(=O)O)=C(C=CSc3cc(=O)c4c(C(F)(F)F)cccc4s3)CS[C@H]12 [compound 5, 7-[2-(2-thienyl)acetamide]-3-[2-(4-oxo-5-trifluoromethyl-4H-1-benzothiopyran-2-yl)thiovinyl]-3-cephem-4-carboxylic acid] |  | 
15 | 0.025 (≈ 0.0469 µM) | 3.13 (≈ 5.88 µM) | O=C(Cc1cccs1)N[C@@H]1C(=O)N2C(C(=O)O)=C(C=CSc3cc(=O)c4occc4s3)CS[C@H]12 [compound 9, 7-[2-(2-thienyl)acetamide]-3-[2-(7-oxo-7H-thiopyrano[3,2-b]furan-5-yl)thiovinyl]-3-cephem-4-carboxylic acid] |  | 
16 | 0.05 (≈ 0.0796 µM) | 6.25 (≈ 9.96 µM) | O=C(Cc1cccs1)N[C@@H]1C(=O)N2C(C(=O)O)=C(C=CSc3cc(=O)c4ccc(N5CCOCC5)cc4s3)CS[C@H]12 [compound 10, 7-[2-(2-thienyl)acetamide]-3-[2-(7-morpholino-4-oxo-4H-1-benzothiopyran-2-yl)thiovinyl]-3-cephem-4-carboxylic acid] |  | 
17 | 0.39 (≈ 0.675 µM) | 6.25 (≈ 10.8 µM) | Nc1nc(/C(=N/O)C(=O)N[C@@H]2C(=O)N3C(C(=O)O)=C(C=CSc4cc(=O)c5occc5s4)CS[C@H]23)cs1 [compound 17, 7-[2-hydroxyimino-2-(2-aminothiazol-4-yl)acetamide]-3-[2-(7-oxo-7H-thiopyrano[3,2-b]furan-5-yl)thiovinyl]-3-cephem-4-carboxylic acid] |  | 
18 | 0.1 (≈ 0.16 µM) | 3.13 (≈ 5 µM) | O=C(Cc1cccs1)N[C@@H]1C(=O)N2C(C(=O)O)=C(C=CSc3cc(=O)c4ccc(N5CCCCC5)cc4s3)CS[C@H]12 [compound 19, 7-[2-(2-thienyl)acetamide]-3-[2-(4-oxo-7-piperidino-4H-1-benzothiopyran-2-yl)thiovinyl]-3-cephem-4-carboxylic acid] |  | 
19 | 0.025 (≈ 0.0456 µM) | 1.56 (≈ 2.84 µM) | O=C(Cc1cccs1)N[C@@H]1C(=O)N2C(C(=O)O)=C(C=CSc3cc(=O)c4sccc4s3)CS[C@H]12 [compound 20, 7-[2-(2-thienyl)acetamide]-3-[2-(7-oxo-7H-thieno[3,2-b]thiopyran-5-yl)thiovinyl]-3-cephem-4-carboxylic acid] |  | 
20 | 0.025 (≈ 0.0429 µM) | 1.56 (≈ 2.68 µM) | O=C(Cc1cccs1)N[C@@H]1C(=O)N2C(C(=O)O)=C(C=CSc3cc(=O)c4cc(Cl)sc4s3)CS[C@H]12 [compound 21, 7-[2-(2-thienyl)acetamide]-3-[2-(2-chloro-4-oxo-4H-thieno[2,3-b]thiopyran-6-yl)thiovinyl]-3-cephem-4-carboxylic acid] |  | 
21 | 0.1 (≈ 0.168 µM) | 3.13 (≈ 5.27 µM) | Nc1nc(/C(=N/O)C(=O)N[C@@H]2C(=O)N3C(C(=O)O)=C(C=CSc4cc(=O)c5sccc5s4)CS[C@H]23)cs1 [compound 23, 7-[2-hydroxyimino-2-(2-aminothiazol-4-yl)acetamide]-3-[2-(7-oxo-7H-thieno[3,2-b]thiopyran-5-yl)thiovinyl]-3-cephem-4-carboxylic acid] |  | 
22 | 0.025 (≈ 0.0421 µM) | 1.56 (≈ 2.63 µM) | O=C(Cc1cccs1)N[C@@H]1C(=O)N2C(C(=O)O)=C(C=CSc3cc(=O)c4scc([N+](=O)[O-])c4s3)CS[C@H]12 [compound 26, 7-[2-(2-thienyl)acetamide]-3-[2-(3-nitro-7-oxo-7H-thieno[3,2-b]thiopyran-5-yl)thiovinyl]-3-cephem-4-carboxylic acid] |  | 
23 | 0.0254 | 6.25 | N=C(N)SCc1ccc2c(=O)cc(SC=CC3=C(C(=O)O)N4C(=O)[C@@H](NC(=O)Cc5cccs5)[C@H]4SC3)sc2c1 [compound 28, 7-[2-(2-thienyl)acetamide]-3-[2-(7-isothiuroniummethyl-4-oxo-4H-1-benzothiopyran-2-yl)thiovinyl]-3-cephem-4-carboxylic acid.formate] |  | 
24 | ≤ 0.006 | 6.25 (≈ 11.5 µM) | O=C(Cc1cccs1)N[C@@H]1C(=O)N2C(C(=O)O)=C(C=CSc3cc(=O)c4cccnc4s3)CS[C@H]12 [compound 30, 7-[2-(2-thienyl)acetamide]-3-[2-(4-oxo-4H-thiopyrano[2,3-b]pyridin-2-yl)thiovinyl]-3-cephem-4-carboxylic acid] |  | 
25 | 0.1 | 3.13 | NCc1c(SC=CC2=C(C(=O)O)N3C(=O)[C@@H](NC(=O)Cc4cccs4)[C@H]3SC2)sc2sc(Cl)cc2c1=O [compound 31, 7-[2-(2-thienyl)acetamide]-3-[2-(5-aminomethyl-2-chloro-4-oxo-4H-thieno[2,3-b]thiopyran-6-yl)thiovinyl]-3-cephem-4-carboxylic acid.trifluoroacetate] |  | 

— patent US6294527A, “Cephem compounds” (Zenyaku Kogyo Kabushiki Kaisha, priority 1996, dated 2001)
